Assay results reported in article PMC11587516 (ACS Chemical Neuroscience, 2024).
pIC50: −log10 of the molar value.

Experiments:
hBGT1 wt = target: T1, hBGT1 wt (Homo sapiens, UniProt P48065); test: [3H]GABA uptake assay, wild type hBGT1 transiently expressed in tsA201 cells; assay type: cell-based
T1 construct: expressed in transfected cells; host or cells: tsA201 cells (transformed HEK293), transient expression
T1 sequence (P48065 1-614): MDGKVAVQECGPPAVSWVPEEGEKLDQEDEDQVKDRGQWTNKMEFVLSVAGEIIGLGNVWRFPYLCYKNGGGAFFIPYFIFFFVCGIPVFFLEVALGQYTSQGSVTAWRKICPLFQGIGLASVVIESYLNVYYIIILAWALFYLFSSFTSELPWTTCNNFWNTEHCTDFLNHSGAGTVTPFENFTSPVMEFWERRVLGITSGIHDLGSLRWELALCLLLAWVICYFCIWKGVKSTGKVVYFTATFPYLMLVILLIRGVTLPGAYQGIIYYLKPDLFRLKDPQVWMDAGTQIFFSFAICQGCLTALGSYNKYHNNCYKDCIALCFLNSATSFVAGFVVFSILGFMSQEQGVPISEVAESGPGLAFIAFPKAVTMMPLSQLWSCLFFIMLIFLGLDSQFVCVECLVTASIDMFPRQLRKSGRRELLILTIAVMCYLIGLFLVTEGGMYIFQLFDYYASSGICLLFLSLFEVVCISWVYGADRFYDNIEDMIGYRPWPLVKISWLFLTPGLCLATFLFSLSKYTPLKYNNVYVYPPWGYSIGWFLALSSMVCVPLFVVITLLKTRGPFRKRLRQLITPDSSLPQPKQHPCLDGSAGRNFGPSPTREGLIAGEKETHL
Protocol: To validate the molecular modeling, particularly the crucial interactions with the Glu52 and Gln299 residues, the activity of compound 9 was tested on the following hBGT1 mutants: E52A, E52Y, Q299L, and the double mutant E52A+Q299L (Figure 5 and Table 1).[14]
The CHO cells were placed in 96-well plates (approximately 50,000 cells/well) for about 24 h before the experiment. […] After incubation, cells were washed 3 times with 100 μL/well ice-cold assay buffer, 150 μL/well MicroScint20 (PerkinElmer) was subsequently added before the plate was shaken for at least 1 h. The radioactivity of each well of the plate was measured on a TopCount NXT scintillation counter. […] Data presented are the pooled data of at least three independent experiments with three technical replicates if not stated otherwise in figure legends. Concentration–response curves were fitted by nonlinear regression to the sigmoidal concentration–response model with GraphPad Prism v 9.0.
The tsA201 cell line (a transformed HEK293 cell line) has been described previously and was cultured accordingly.[20] The tsA201 cells used for transient expression of hBGT1 mutants were transfected with DNA constructs (8 μg per 10 cm plate) using 40 μL of PolyFect transfection reagent according to the manufacturer’s protocol (Qiagen). […]

[1] = test system: normal human astrocytes (NHA); test: Phase-contrast microscopy of normal human astrocytes in culture medium; assay type: cell-based; settings: 500 μM in culture medium; 72 h
Protocol: Taking into account the presence of BGT1 and GAT3 transporters in astrocytes, we studied the effect of compound 9 on astrocyte viability, proliferation, and homeostasis. Normal human astrocytes (NHA) were treated with 1–100 μM compound 9 in a culture medium. The WST-1 assay was used to determine the number of metabolically active cells after 24 and 48 h of incubation. […] In the next step, a higher concentration (500 μM) of the compound and a longer incubation time (72 h) were applied, and the cells were examined by phase-contrast microscopy. […] Considering the results shown in Figure 6, compound 9 was not cytotoxic toward human astrocytes under in vitro culture conditions.
Gibco Human Astrocytes (Thermo Fisher Scientific) were maintained in a humidified 5% CO2 incubator at 37 °C. The cells were cultured in Gibco Astrocyte Medium (DMEM with GlutaMAX, N-2 Supplement, and OneShot Fetal Bovine Serum) supplemented with penicillin G (100 U/mL), neomycin (10 μg/mL), and amphotericin B (0.25 μg/mL).

NC12CC(C(=O)O)(C1)C2 [Compound 9]
pIC50 (hBGT1 wt): 4.47
astrocyte morphology and confluency [1]: no changes in astrocyte morphology and confluency
